30 compounds from patent US11053251B2, “GPR35 modulators” (Prometheus Biosciences, Inc., priority 2019, dated 2021) can be followed below.

Human GPR35, sequence (Q9HC97 whole entry S294R): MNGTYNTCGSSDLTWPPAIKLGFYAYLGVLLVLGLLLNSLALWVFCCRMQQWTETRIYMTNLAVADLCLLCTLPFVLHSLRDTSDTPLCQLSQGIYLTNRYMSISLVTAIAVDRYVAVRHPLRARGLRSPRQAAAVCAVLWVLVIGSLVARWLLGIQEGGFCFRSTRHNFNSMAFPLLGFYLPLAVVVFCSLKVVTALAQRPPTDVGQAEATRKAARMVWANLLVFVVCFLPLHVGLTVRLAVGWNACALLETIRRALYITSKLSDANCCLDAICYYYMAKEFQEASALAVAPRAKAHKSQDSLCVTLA

For the assay, the target named is Human GPR35 (Homo sapiens, UniProt Q9HC97, S294R). The assay is described as follows: Alternative Beta-Arrestin Assay (JumpIn 294R Tango U2OS cells, LiveBLAzer-FRET B/G). The class given is cell-based. Conditions: Human GPR35 expressing JumpIn 294R Tango U2OS cells, 5 hours treatment. Here is the method:
Human GPR35 expressing JumpIn (Thermo Fisher) 294R Tango U2OS cells were plated in 384-well format in clear bottom plates at a cell density of 10,000 cells/well and allowed to grow overnight. The next day, cells were treated with serially diluted test compounds for 5 hours. LiveBLAzer-FRET B/G (CCF4-AM) detection reagents were then added and cells were allowed to incubate for 2 hours before reading plates on a BioTek Cytation 5 plate reader. Zaprinast was used as a positive control for dose-response curves. In order to determine EC50 values, data w ere fit to a four-parameter dose-response curves.
Take `CCOc1cc(-c2nc3[nH]nnc3c(=O)[nH]2)ccc1-c1cccc(OCC(=O)O)c1` [Compound 217, 2-((2′-Ethoxy-4′-(7-oxo-6,7-dihydro-3H-[1,2,3]triazolo[4,5-d]pyrimidin-5-yl)-[1,1′-biphenyl]-3-yl)oxy)acetic acid]: the EC50 (commonly the concentration giving half of the maximal effect) was at most 10 µM. To `CCOC(=O)COc1cccc(-c2ccc(-c3nc4[nH]nnc4c(=O)[nH]3)c(OCC)c2)c1` [Compound 120, Ethyl 2-((3′-ethoxy-4′-(7-oxo-6,7-dihydro-3H-[1,2,3]triazolo[4,5-d]pyrimidin-5-yl)-[1,1′-biphenyl]-3-yl)oxy)acetate] belongs at most 10 µM. To `CCOC(=O)COc1cccc(-c2ccc(-c3nc4[nH]nnc4c(=O)[nH]3)c(OC3CCCC3)c2)c1` [Compound 270, ethyl 2-((3′-(cyclopentyloxy)-4′-(7-oxo-6,7-dihydro-3H-[1,2,3]triazolo[4,5-d]pyrimidin-5-yl)-[1,1′-biphenyl]-3-yl)oxy)acetate] belongs at most 10 µM.

With `O=C(O)c1ccc(-c2ccc(-c3nc4[nH]nnc4c(=O)[nH]3)cc2NCc2ccccc2)cc1` [Compound 290, 2′-(benzylamino)-4′-(7-oxo-6,7-dihydro-3H-[1,2,3]triazolo[4,5-d]pyrimidin-5-yl)-[1,1′-biphenyl]-4-carboxylic acid], the EC50 is at most 10 µM. To `CCOc1cc(-c2ccc(O)c(OC(C)C(=O)O)c2)ccc1-c1nc2[nH]nnc2c(=O)[nH]1` (stereo not drawn) [Compound 280, 2-((3′-ethoxy-4-hydroxy-4′-(7-oxo-6,7-dihydro-3H-[1,2,3]triazolo[4,5-d]pyrimidin-5-yl)-[1,1′-biphenyl]-3-yl)oxy)propanoic acid] belongs at most 10 µM; to `CCOc1cc(-c2ccc(C(=O)O)o2)ccc1-c1nc2[nH]nnc2c(=O)[nH]1` [Compound 189, 5-(3-ethoxy-4-(7-oxo-6,7-dihydro-3H-[1,2,3]triazolo[4,5-d]pyrimidin-5-yl)phenyl)furan-2-carboxylic acid], at most 10 µM. Regarding `CCOc1cc(-c2cccc(C[C@@H](O)C(=O)O)c2)ccc1-c1nc2[nH]nnc2c(=O)[nH]1` [Compound 284, (R)-3-(3′-ethoxy-4′-(7-oxo-6,7-dihydro-3H-[1,2,3]triazolo[4,5-d]pyrimidin-5-yl)-[1,1′-biphenyl]-3-yl)-2-hydroxypropanoic acid], the EC50 is at most 10 µM.

In turn, `CCOc1cc(-c2cccc(C[C@H](N)C(=O)O)c2)ccc1-c1nc2[nH]nnc2c(=O)[nH]1` [Compound 274, (S)-2-amino-3-(3′-ethoxy-4′-(7-oxo-6,7-dihydro-3H-[1,2,3]triazolo[4,5-d]pyrimidin-5-yl)-[1,1′-biphenyl]-3-yl)propanoic acid] gave an EC50 of at most 10 µM. To `CCOc1cc(-c2cccc(C[C@@H](N)C(=O)O)c2)ccc1-c1nc2[nH]nnc2c(=O)[nH]1` [Compound 275, (R)-2-amino-3-(3′-ethoxy-4′-(7-oxo-6,7-dihydro-3H-[1,2,3]triazolo[4,5-d]pyrimidin-5-yl)-[1,1′-biphenyl]-3-yl)propanoic acid] belongs at most 10 µM; to `CCOc1cc(-c2cccc(CC(CC)C(=O)O)c2)ccc1-c1nc2[nH]nnc2c(=O)[nH]1` (single isomer, unassigned) [Compound 240, 2-((3′-ethoxy-4′-(7-oxo-6,7-dihydro-3H-[1,2,3]triazolo[4,5-d]pyrimidin-5-yl)-[1,1′-biphenyl]-3-yl)methyl)butanoic acid], at most 10 µM; to `CC(Oc1cccc(-c2ccc(-c3nc4[nH]nnc4c(=O)[nH]3)c(OC3CCCC3)c2)c1)C(=O)O` (stereo not drawn) [Compound 250, 2-((3′-(cyclopentyloxy)-4′-(7-oxo-6,7-dihydro-3H-[1,2,3]triazolo[4,5-d]pyrimidin-5-yl)-[1,1′-biphenyl]-3-yl)oxy)propanoic acid], at most 10 µM. `O=C(O)c1ccc(-c2ccc(-c3nc4[nH]nnc4c(=O)[nH]3)c(OC3CCCC3)c2)nc1` [Compound 231, 6-(3-(Cyclopentyloxy)-4-(7-oxo-6,7-dihydro-3H-[1,2,3]triazolo[4,5-d]pyrimidin-5-yl)phenyl)nicotinic acid] had an EC50 of at most 10 µM.

`CCOc1cc(-c2cc(C)cc(C(=O)O)c2)ccc1-c1nc2[nH]nnc2c(=O)[nH]1` [Compound 185, 3′-ethoxy-5-methyl-4′-(7-oxo-6,7-dihydro-3H-[1,2,3]triazolo[4,5-d]pyrimidin-5-yl)-[1,1′-biphenyl]-3-carboxylic acid] showed an EC50 of at most 10 µM. As to `CCOc1cc(-c2cccc(C[C@H](O)C(=O)O)c2)ccc1-c1nc2[nH]nnc2c(=O)[nH]1` [Compound 282, (S)-3-(3′-ethoxy-4′-(7-oxo-6,7-dihydro-3H-[1,2,3]triazolo[4,5-d]pyrimidin-5-yl)-[1,1′-biphenyl]-3-yl)-2-hydroxypropanoic acid], the EC50 was at most 10 µM. To `CCOc1cc(-c2ccc(C(=O)O)c(F)c2)ccc1-c1nc2[nH]nnc2c(=O)[nH]1` [Compound 205, 3′-Ethoxy-3-fluoro-4′-(7-oxo-6,7-dihydro-3H-[1,2,3]triazolo[4,5-d]pyrimidin-5-yl)-[1,1′-biphenyl]-4-carboxylic acid] belongs at most 10 µM; to `CCOc1cc(-c2cccc(CC(C)C(=O)O)c2)ccc1-c1nc2[nH]nnc2c(=O)[nH]1` (stereo not drawn) [Compound 238, 3-(3′-ethoxy-4′-(7-oxo-6,7-dihydro-3H-[1,2,3]triazolo[4,5-d]pyrimidin-5-yl)-[1,1′-biphenyl]-3-yl)-2-methylpropanoic acid], at most 10 µM; to `CCOc1cc(-c2nc3[nH]nnc3c(=O)[nH]2)ccc1-c1ccc(C(=O)O)cc1` [Compound 195, 2′-Ethoxy-4′-(7-oxo-6,7-dihydro-3H-[1,2,3]triazolo[4,5-d]pyrimidin-5-yl)-[1,1′-biphenyl]-4-carboxylic acid], at most 10 µM.

`CCOc1cc(-c2cccc(O[C@@H](C)C(=O)O)c2)ccc1-c1nc2[nH]nnc2c(=O)[nH]1` (single isomer, unassigned) [Compound 252] came in with an EC50 of at most 10 µM. To `CCOc1cc(-c2cccc(CC(=O)O)c2)ccc1-c1nc2[nH]nnc2c(=O)[nH]1` [Compound 295, 2-(3′-ethoxy-4′-(7-oxo-6,7-dihydro-3H-[1,2,3]triazolo[4,5-d]pyrimidin-5-yl)-[1,1′-biphenyl]-3-yl)acetic acid] belongs at most 10 µM.

`CCOc1cc(-c2ccc(C(=O)O)c(O)c2)ccc1-c1nc2[nH]nnc2c(=O)[nH]1` [Compound 208, 3′-Ethoxy-3-hydroxy-4′-(7-oxo-6,7-dihydro-3H-[1,2,3]triazolo[4,5-d]pyrimidin-5-yl)-[1,1′-biphenyl]-4-carboxylic acid] yielded an EC50 of at most 10 µM. As for `CCOc1cc(-c2nc(C(=O)O)co2)ccc1-c1nc2[nH]nnc2c(=O)[nH]1` [Compound 188, 2-(3-ethoxy-4-(7-oxo-6,7-dihydro-3H-[1,2,3]triazolo[4,5-d]pyrimidin-5-yl)phenyl)oxazole-4-carboxylic acid], the EC50 was at most 10 µM. In turn, `CCOc1cc(-c2cccc([C@H]3C[C@@H]3C(=O)O)c2)ccc1-c1nc2[nH]nnc2c(=O)[nH]1` (racemic) [Compound 277, rac-trans-2-(3′-ethoxy-4′-(7-oxo-6,7-dihydro-3H-[1,2,3]triazolo[4,5-d]pyrimidin-5-yl)-[1,1′-biphenyl]-3-yl)cyclopropane-1-carboxylic acid] gave an EC50 of at most 10 µM. To `CCOc1cc(-c2cccc(CC3(C(=O)O)CCC3)c2)ccc1-c1nc2[nH]nnc2c(=O)[nH]1` [Compound 246, 1-((3′-ethoxy-4′-(7-oxo-6,7-dihydro-3H-[1,2,3]triazolo[4,5-d]pyrimidin-5-yl)-[1,1′-biphenyl]-3-yl)methyl)cyclobutane-1-carboxylic acid] belongs at most 10 µM. To `CCOC(=O)C(Oc1cccc(-c2ccc(-c3nc4[nH]nnc4c(=O)[nH]3)c(OCC)c2)c1)C(C)C` (stereo not drawn) [Compound 268, ethyl 2-((3′-ethoxy-4′-(7-oxo-6,7-dihydro-3H-[1,2,3]triazolo[4,5-d]pyrimidin-5-yl)-[1,1′-biphenyl]-3-yl)oxy)-3-methylbutanoate] belongs at most 10 µM; to `O=C(O)c1cc(O)cc(-c2ccc(-c3nc4[nH]nnc4c(=O)[nH]3)c(OC3CCCC3)c2)c1` [Compound 199, 3′-(Cyclopentyloxy)-5-hydroxy-4′-(7-oxo-6,7-dihydro-3H-[1,2,3]triazolo[4,5-d]pyrimidin-5-yl)-[1,1′-biphenyl]-3-carboxylic acid], at most 10 µM. Compound `CCOc1cc(-c2cc(F)c(F)c(O[C@H](C)C(=O)O)c2)ccc1-c1nc2[nH]nnc2c(=O)[nH]1` (single isomer, unassigned) [Compound 260] displayed a 50% effective concentration (EC50) of at most 10 µM.

As for `CCOc1cc(-c2cc(O)cc(O[C@@H](C)C(=O)O)c2)ccc1-c1nc2[nH]nnc2c(=O)[nH]1` (single isomer, unassigned) [Compound 256], the concentration for a half-maximal effect (EC50) is at most 10 µM.

On to `CCOc1cc(-c2ccc(O)c(NCC(=O)O)c2)ccc1-c1nc2[nH]nnc2c(=O)[nH]1` [Compound 222, (3′-Ethoxy-4-hydroxy-4′-(7-oxo-6,7-dihydro-3H-[1,2,3]triazolo[4,5-d]pyrimidin-5-yl)-[1,1′-biphenyl]-3-yl)glycine], for which the EC50 was at most 10 µM. To `O=C(O)c1cc(-c2ccc(-c3nc4[nH]nnc4c(=O)[nH]3)c(OC3CCCC3)c2)ccc1O` [Compound 200, 3′-(Cyclopentyloxy)-4-hydroxy-4′-(7-oxo-6,7-dihydro-3H-[1,2,3]triazolo[4,5-d]pyrimidin-5-yl)-[1,1′-biphenyl]-3-carboxylic acid] belongs at most 10 µM.

`CCOc1cc(-c2cccc(OC(C)(C)C(=O)O)c2)ccc1-c1nc2[nH]nnc2c(=O)[nH]1` [Compound 213, 2-((3′-Ethoxy-4′-(7-oxo-6,7-dihydro-3H-[1,2,3]triazolo[4,5-d]pyrimidin-5-yl)-[1,1′-biphenyl]-3-yl)oxy)-2-methylpropanoic acid] registered an EC50 of at most 10 µM.
